This is an account of results in paper PMC3466217, “A Novel Magnetic Nanoparticle Drug Carrier for Enhanced Cancer Chemotherapy” (PLoS ONE, 2012).

In brackets after ≈: the same amount, converted by molar mass.

The subject of one data set is H22 cells. As to the kind of experiment: Cytotoxicity in H22 cell culture (MTT assay). The data set is classed as cell-based, mouse. As to conditions: 24 hrs, concentration as DOX. The method, then:
A volume of 180 µl of H22 cells were seeded in 96-well plates (4,000 cells/well).
Control cells were cultured in medium only. Thiazolyl blue tetrazolium bromide (25 µl of 5 mg/ml) (MTT, AMRESCO Inc, Solon, OH) was added to each well and incubated for 4 hrs. The culture medium was removed from the wells and replaced with 150 µl dimethylsulfoxide (DMSO, BioTek, Winooski, VT). After shaking gently for 15 min at 25°C, the DMSO solution was transferred to centrifugation tubes and centrifuged at 2,000 rpm for 5 min. The absorbance was then measured at 570 nm with an ELx-800 Universal Microplate Reader (BioTek, Winooski, VT). […] The half-maximal inhibitory concentration (IC50; drug concentration corresponding to 50% growth inhibition) was calculated using SigmaPlot 9.0 software (Systat Software Inc., San Jose, CA) and the 4-parameter logistic function standard curve analysis for dose response.
On the technique in general: Formazan colour is commonly taken as a measure of viable cells.

Data set [1] is described as follows: DOX biodistribution in H22 tumor-bearing mice. The conditions noted are these: 5 mg DOX/kg, tail vein, 0.5 hr after treatment, no EMF. Format: in vivo, BALB/c mice. The method, then:
The blood, main organs (heart, lung, liver, spleen, kidney), and the tumor of each mouse were harvested for quantitative analysis of the DOX biodistribution. The blood was centrifuged at 5,000 rpm for 1 min at 4°C and the supernatant was obtained by adding 180 µl methanol and 20 µl of inner standard solution (0.2 mg/ml daunorubicin solution dissolved in methanol) to a 2-ml tube containing 200 µl plasma. For the organ (heart, lung, liver, spleen, kidney) and tumor samples, the frozen tissues were weighed and homogenized at 4°C in 0.9% NaCl to a total volume of 10 ml, and centrifuged at 5,000 rpm for 1 min at 4°C to retrieve the supernatant.
A total volume of 200 µl of the plasma, or the supernatant of homogenized tissue, or the tumor samples was then mixed with 180 µl methanols and 20 µl inner standard solutions, followed by 0.4 g sodium sulfate. The mixture was homogenized by vortexing for 5 min and then incubated at 4°C for 1 hr. After the 1-hr incubation, the mixture was centrifuged at 12,000 rpm for 15 min. […] Finally, the percent-injected dose per gram tissue of the tissue and tumor samples was calculated.

A further data set concerns H22 hepatoma cell tumor. In words: Chemotherapy experiments in H22 tumor-bearing mice (tumor volume, life span, histology). The conditions noted are these: no EMF.

Method for H22 hepatoma cell tumor: The mouse hepatoma H22 cell line was grown in RPMI-1640 medium supplemented with 10% FBS, 100 units/ml of penicillin and 100 µg/ml of streptomycin at 37°C and 5% CO2. BALB/c mice (4- to 8-week-old males, body weight 26±5 g) were housed (one mouse per cage) under specific pathogen-free conditions, maintained on a 12-hour light-dark cycle with controlled temperature (20–24°C), and were given sterile food. The tumor-bearing mouse model was generated by subcutaneous injection of 4×10^5 H22 cells with 50 µl phosphate-buffered saline (PBS) into the shaved right flank. The treatment protocol required the mice to be anesthetized and these were anesthetized with ketamine (80 mg/kg) and xylazine (3 mg/kg), and acepromazine (2 mg/kg) via intraperitoneal injection (IP). If an additional dose was needed, ketamine alone was used.
The doses were normalized to 5 mg DOX per kg body weight when the tumor volume reached 50 to 100 mm^3 (∼10 days after tumor cell inoculation). The volume for 150 µl was injected via the tail vein and the treatment was carried out three times without interval in three weeks.
Chemotherapy experiments: H22 tumor-bearing mice (4 groups; for each group, n = 18) were used and the treatment was performed as described above. The antitumor effect was assessed by the following steps: 1) six mice were sacrificed for each group on the 24th day following treatment. The tumors were harvested and fixed in 10% formalin, embedded in paraffin and sectioned (5 µm coupes) for hematoxylin–eosin (HE) staining for microscopic examination purposes; 2) tumor sizes (4 groups; for each group, n = 12) were measured by a caliper before therapy and every three days after treatment using the following equation: tumor volume (V, mm^3) = (tumor length×tumor width)^2/2. The life span of each animal was also recorded. The relative tumor volume was calculated from V = V/V0, where V0 is the tumor volume at the beginning of treatment. The endpoints of the antitumor effect were evaluated by the degree of tumor growth inhibition and life span after treatment.

Take `COc1cccc2c1C(=O)c1c(O)c3c(c(O)c1C2=O)C[C@@](O)(C(=O)CO)C[C@@H]3O[C@H]1C[C@H](N)[C@H](O)[C@H](C)O1` [DOX, doxorubicin]: the “IC50 (cell inhibition rate)” value in the data set with H22 cells worked out at 0.530 ± 0.010 µg/mL (≈ 0.975 µM). For the same compound, in data set [1], the “DOX concentrations in the other organs (heart, lung and kidney)” value was “Very low concentrations”; the “percent injected dose per gram tissue in blood” value is 1.07%; the “percent injected dose per gram tissue in livers” value was determined as 0.402%; the “percent injected dose per gram tissue in spleens” value was 0.634%. The “percent injected dose per gram tissue in tumors” value in data set [1] is recorded as 0.741%. For the same compound, the “life span of tumor-bearing mice” value in the data set on H22 hepatoma cell tumor (5 mg DOX/kg iv three times) was 31.3 ± 3.31 days. For the same compound, the “tumor histology (HE staining)” value with H22 hepatoma cell tumor (24th day following treatment) is given as “A few necrotic cells were observed”. For the same compound, in the data set with H22 hepatoma cell tumor (21 days after start of treatment, 5 mg DOX/kg iv three times), the “relative tumor volume (V/V0)” value is reported as 7.08±1.68. In addition, the “survival rate of tumor-bearing mice” value with H22 hepatoma cell tumor (following treatment for 33 days) is reported as 33.3%.
